The results in this text go back to ChEMBL document CHEMBL2062454, “SAR studies around a series of triazolopyridines as potent and selective PI3Kγ inhibitors” (Bioorg Med Chem Lett, 2012).

Assay [1] concerns the target Phosphatidylinositol 4,5-bisphosphate 3-kinase catalytic subunit alpha isoform (Homo sapiens, UniProt P42336). Briefly: Inhibition of PI3Kalpha by high throughput chemoproteomics binding assay.
The target of assay [2] is T1, Phosphatidylinositol 4,5-bisphosphate 3-kinase catalytic subunit gamma isoform (Homo sapiens, UniProt P48736). The assay can be described thus: Inhibition of PI3Kgamma by high throughput chemoproteomics binding assay.
The target of assay [3] is T2, Phosphatidylinositol 4,5-bisphosphate 3-kinase catalytic subunit delta isoform (Homo sapiens, UniProt O00329).
T2 sequence (O00329 whole entry): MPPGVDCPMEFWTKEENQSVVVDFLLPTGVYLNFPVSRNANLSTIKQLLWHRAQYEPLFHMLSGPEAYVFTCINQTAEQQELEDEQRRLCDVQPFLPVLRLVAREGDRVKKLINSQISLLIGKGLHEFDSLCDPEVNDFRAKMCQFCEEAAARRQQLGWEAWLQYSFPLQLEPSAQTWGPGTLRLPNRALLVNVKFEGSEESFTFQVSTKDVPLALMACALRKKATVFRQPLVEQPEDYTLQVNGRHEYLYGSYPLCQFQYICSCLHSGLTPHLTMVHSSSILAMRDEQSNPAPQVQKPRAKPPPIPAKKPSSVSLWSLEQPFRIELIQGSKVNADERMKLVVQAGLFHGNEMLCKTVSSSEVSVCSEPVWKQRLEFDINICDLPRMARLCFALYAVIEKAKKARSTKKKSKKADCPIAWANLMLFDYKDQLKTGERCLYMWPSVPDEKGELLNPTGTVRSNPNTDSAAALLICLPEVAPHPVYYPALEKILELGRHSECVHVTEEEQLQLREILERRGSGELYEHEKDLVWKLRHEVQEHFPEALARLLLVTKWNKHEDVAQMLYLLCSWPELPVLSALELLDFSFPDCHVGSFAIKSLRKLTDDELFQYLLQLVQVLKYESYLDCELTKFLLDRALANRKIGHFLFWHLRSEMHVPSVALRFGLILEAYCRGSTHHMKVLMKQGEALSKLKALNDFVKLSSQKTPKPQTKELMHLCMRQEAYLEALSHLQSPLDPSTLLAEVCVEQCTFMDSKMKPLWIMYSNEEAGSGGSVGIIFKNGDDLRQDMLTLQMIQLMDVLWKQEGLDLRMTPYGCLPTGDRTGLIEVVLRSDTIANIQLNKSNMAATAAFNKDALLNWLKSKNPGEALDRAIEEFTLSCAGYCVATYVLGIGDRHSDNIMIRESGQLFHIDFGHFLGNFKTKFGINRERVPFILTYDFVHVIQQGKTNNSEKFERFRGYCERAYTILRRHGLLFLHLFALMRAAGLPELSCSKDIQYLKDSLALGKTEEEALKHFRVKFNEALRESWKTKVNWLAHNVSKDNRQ
The assay can be described thus: Inhibition of PI3Kdelta by high throughput chemoproteomics binding assay.

Assay [4] deals with T1, Phosphatidylinositol 4,5-bisphosphate 3-kinase catalytic subunit gamma isoform. The assay can be described thus: Inhibition of PI3Kgamma assessed as inhibition of C5a-induced AKT phosphorylation at Ser473 by cell based assay.
The target in assay [5] is Phosphatidylinositol 4,5-bisphosphate 3-kinase catalytic subunit beta isoform (Homo sapiens, UniProt P42338). The assay can be described thus: Inhibition of PI3Kbeta by high throughput chemoproteomics binding assay.
Assay [6] is filed under the species Homo sapiens. The assay can be described thus: Selectivity ratio of IC50 for PI3Kdelta to IC50 for PI3Kgamma.
Assay [7] is filed under the species Homo sapiens. The assay can be described thus: Selectivity ratio of IC50 for PI3Kalpha to IC50 for PI3Kgamma.
The species entered for assay [8] is Homo sapiens. The assay can be described thus: Selectivity ratio of IC50 for PI3Kbeta to IC50 for PI3Kgamma.

Phosphatidylinositol 4,5-bisphosphate 3-kinase catalytic subunit beta isoform, sequence (P42338 whole entry, canonical isoform): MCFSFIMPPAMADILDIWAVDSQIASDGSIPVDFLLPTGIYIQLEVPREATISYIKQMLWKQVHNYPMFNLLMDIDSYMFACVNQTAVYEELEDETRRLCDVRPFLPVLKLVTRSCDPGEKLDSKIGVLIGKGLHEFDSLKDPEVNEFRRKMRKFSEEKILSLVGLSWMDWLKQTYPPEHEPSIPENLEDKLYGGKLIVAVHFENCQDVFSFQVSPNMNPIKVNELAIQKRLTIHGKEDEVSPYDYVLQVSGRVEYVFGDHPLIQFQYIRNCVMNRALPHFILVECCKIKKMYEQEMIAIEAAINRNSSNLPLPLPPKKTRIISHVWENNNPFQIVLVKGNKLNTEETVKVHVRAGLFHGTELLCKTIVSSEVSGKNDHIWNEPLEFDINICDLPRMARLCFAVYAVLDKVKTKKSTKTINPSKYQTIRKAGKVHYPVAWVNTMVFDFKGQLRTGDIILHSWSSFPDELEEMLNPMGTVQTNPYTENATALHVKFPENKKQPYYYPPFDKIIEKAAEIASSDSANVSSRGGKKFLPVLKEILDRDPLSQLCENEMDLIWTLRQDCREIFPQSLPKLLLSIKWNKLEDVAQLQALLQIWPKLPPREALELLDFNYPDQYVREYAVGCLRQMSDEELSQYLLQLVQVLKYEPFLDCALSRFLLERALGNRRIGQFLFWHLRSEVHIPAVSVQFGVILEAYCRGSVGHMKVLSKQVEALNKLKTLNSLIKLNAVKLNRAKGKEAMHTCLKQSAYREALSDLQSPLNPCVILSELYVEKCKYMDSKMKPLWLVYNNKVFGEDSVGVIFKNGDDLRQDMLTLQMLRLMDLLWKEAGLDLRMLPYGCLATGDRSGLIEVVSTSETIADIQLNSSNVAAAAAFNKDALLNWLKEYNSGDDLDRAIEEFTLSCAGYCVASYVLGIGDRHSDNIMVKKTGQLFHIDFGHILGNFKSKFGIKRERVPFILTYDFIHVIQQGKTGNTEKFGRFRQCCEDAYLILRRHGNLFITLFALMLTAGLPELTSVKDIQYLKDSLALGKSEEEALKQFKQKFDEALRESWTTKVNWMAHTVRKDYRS
T1 sequence (P48736 whole entry, canonical isoform): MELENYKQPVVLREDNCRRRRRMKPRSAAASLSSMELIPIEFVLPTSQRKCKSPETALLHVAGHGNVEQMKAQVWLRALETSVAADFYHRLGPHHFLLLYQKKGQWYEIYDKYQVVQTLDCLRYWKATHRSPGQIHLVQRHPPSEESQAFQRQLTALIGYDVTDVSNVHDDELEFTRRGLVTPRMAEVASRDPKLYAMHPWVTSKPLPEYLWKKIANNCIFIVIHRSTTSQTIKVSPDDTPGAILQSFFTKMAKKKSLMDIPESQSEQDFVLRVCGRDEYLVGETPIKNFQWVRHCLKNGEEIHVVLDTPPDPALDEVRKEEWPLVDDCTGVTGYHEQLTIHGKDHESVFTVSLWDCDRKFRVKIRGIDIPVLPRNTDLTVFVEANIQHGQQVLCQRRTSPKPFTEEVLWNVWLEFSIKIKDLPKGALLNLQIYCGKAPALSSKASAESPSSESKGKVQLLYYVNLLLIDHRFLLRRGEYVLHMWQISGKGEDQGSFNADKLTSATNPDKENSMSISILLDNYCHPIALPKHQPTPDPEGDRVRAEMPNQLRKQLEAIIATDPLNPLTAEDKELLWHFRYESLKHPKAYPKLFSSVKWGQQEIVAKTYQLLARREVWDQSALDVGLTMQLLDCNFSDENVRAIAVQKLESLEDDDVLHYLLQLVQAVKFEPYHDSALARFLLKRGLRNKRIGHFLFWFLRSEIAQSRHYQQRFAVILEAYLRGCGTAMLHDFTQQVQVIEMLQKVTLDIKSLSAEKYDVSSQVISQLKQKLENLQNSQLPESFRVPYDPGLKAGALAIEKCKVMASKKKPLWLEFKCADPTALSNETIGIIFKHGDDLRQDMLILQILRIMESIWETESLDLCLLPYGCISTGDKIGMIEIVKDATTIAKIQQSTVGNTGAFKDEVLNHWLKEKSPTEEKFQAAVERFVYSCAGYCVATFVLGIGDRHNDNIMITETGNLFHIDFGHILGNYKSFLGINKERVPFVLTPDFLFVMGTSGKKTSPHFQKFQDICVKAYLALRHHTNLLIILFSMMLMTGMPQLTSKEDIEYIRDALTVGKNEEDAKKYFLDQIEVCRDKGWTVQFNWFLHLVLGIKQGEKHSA
Phosphatidylinositol 4,5-bisphosphate 3-kinase catalytic subunit alpha isoform, sequence (P42336 whole entry, canonical isoform): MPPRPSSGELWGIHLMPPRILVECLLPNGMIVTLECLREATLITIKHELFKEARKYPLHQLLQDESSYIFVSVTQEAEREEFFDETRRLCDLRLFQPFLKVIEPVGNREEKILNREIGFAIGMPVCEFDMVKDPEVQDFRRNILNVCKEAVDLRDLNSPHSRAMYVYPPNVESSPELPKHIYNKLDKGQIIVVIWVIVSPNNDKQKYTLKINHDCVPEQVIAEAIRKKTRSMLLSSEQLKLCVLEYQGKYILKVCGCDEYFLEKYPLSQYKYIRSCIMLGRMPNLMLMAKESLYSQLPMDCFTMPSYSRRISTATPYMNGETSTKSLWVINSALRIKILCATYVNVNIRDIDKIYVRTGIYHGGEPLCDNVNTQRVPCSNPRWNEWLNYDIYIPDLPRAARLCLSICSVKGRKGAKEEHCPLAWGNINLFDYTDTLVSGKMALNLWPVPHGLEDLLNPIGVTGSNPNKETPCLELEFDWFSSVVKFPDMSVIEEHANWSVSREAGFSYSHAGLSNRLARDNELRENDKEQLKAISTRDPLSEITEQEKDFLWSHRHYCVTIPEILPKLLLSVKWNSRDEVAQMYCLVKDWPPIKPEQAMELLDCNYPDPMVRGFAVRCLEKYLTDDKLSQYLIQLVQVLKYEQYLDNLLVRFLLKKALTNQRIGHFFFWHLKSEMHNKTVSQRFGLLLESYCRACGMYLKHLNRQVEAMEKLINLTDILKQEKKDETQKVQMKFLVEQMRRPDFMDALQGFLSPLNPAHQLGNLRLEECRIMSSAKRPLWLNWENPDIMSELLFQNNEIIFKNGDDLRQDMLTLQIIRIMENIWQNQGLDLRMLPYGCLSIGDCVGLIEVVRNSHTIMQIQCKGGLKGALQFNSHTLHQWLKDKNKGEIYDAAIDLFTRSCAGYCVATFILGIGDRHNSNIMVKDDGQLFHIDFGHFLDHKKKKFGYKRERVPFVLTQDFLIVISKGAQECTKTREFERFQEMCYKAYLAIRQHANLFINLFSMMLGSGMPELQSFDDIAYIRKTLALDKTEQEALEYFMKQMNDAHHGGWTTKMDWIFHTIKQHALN

Turning to `CNC(=O)c1cccc(-c2ccc3nc(NC(C)=O)nn3c2)c1`, the half-inhibitory concentration (IC50) (commonly the point on the concentration scale where inhibition reaches its midpoint) was over 50.1 µM in assay [1], 0.631 µM in assay [2] and over 100 µM in assay [3].

With `COc1cncc(-c2ccc3nc(NC(C)=O)nn3c2)c1`, the IC50 in assay [1] was over 3.98 µM; in assay [2], 0.0631 µM; in assay [3], over 10 µM.

With `CC(=O)Nc1nc2ccc(-c3cncc(S(=O)(=O)NCc4ccccc4)c3)cn2n1`, the figures for the IC50 in assay [1], in assay [2] and in assay [3] were over 3.16 µM, 0.0398 µM and 3.16 µM, respectively.

On to `Nc1nc2ccc(-c3cncc(S(=O)(=O)Nc4ccc(Cl)cc4)c3)cn2n1`, for which the IC50 in assay [1] was 3.98 µM; in assay [2] it was 0.631 µM; in assay [3], 6.31 µM; in assay [4], over 12.6 µM.

`CC(=O)Nc1nc2ccc(-c3cccc(-c4ccccc4)c3)cn2n1`: the 50% inhibitory concentration (IC50) in assay [1] is over 20 µM; in assay [2], over 3.98 µM; in assay [3], over 100 µM.

Consider `CNc1nc2ccc(-c3cncc(S(C)(=O)=O)c3)cn2n1`, for which the IC50 in assay [1] was over 3.98 µM; in assay [2], 0.316 µM; in assay [3], over 25.1 µM.

As for `COc1ccc(-c2ccc3nc(NC(C)=O)nn3c2)cc1S(=O)(=O)NCc1ccccc1`, the concentration for half-maximal inhibition (IC50) is over 100 µM in assay [1], over 100 µM in assay [2] and over 10 µM in assay [3].

With `CC(=O)Nc1nc2cc(C)c(-c3cncc(S(C)(=O)=O)c3)cn2n1`, the IC50 in assay [1] is over 100 µM; in assay [2], over 100 µM; in assay [3], over 100 µM; in assay [5], 200 µM.

As for `CC(=O)Nc1nc2ccc(-c3cncc4ccccc34)cn2n1`, the IC50 in assay [1] is over 100 µM; in assay [2], 3.16 µM; in assay [3] it was over 100 µM.

In the case of `CS(=O)(=O)c1cncc(-c2ccc3nc(N)nn3c2)c1`, in assay [4], the IC50 is 2 µM.

In the case of `CC(=O)Nc1nc2ccc(-c3cnn(C)c3)cn2n1`, the IC50 in assay [1] was over 63.1 µM; in assay [2], 3.98 µM; in assay [3] it was over 100 µM.

Consider `CC(=O)Nc1nc2ccc(-c3cncc(S(C)(=O)=O)c3)c(C)n2n1`, for which the IC50 in assay [1] is over 100 µM; in assay [2], 1 µM; in assay [3], over 39.8 µM; in assay [5], 25.1 µM.

As to `CC(=O)Nc1nc2ccc(-c3cccc(NS(C)(=O)=O)c3)cn2n1`, the 50% inhibitory concentration (IC50) was 5.01 µM in assay [1], 0.316 µM in assay [2] and 5.01 µM in assay [3].

Turning to `CNS(=O)(=O)c1ccc(-c2ccc3nc(NC(C)=O)nn3c2)cc1`, the IC50 in assay [1] was over 100 µM; in assay [2], over 50.1 µM; in assay [3], over 100 µM.

Turning to `CC(=O)Nc1nc2ccc(-c3cccnc3)cn2n1`, the IC50 in assay [1] is 15.8 µM; in assay [2], 0.251 µM; in assay [3] it was over 31.6 µM. Further, the Ratio IC50 in assay [6] and in assay [7] was over 60 in each case.

Regarding `CS(=O)(=O)c1cncc(-c2cc(Cl)c3nc(N)nn3c2)c1`, the IC50 in assay [1] is over 100 µM; in assay [2], 2 µM; in assay [3], over 100 µM; in assay [5], over 100 µM.

As to `CN(C)c1nc2ccc(-c3cncc(S(C)(=O)=O)c3)cn2n1`, the figures for the IC50 in assay [1], in assay [2] and in assay [3] were over 100 µM, 3.16 µM and over 100 µM, respectively.

Consider `CS(=O)(=O)Nc1cccc(-c2ccc3nc(NC(=O)C4CCCCC4)nn3c2)c1`, for which the IC50 is over 100 µM in assay [1], 0.316 µM in assay [2] and 0.501 µM in assay [3].

Take `CC(C)(C)NS(=O)(=O)c1cncc(-c2cn3nc(N)nc3cc2F)c1`: the IC50 is over 100 µM in assay [1], 25.1 µM in assay [2], over 100 µM in assay [3] and over 100 µM in assay [5].

As to `COc1ccc(-c2ccc3nc(NC(C)=O)nn3c2)cc1OC`, the results for the IC50 in assay [1], in assay [2] and in assay [3] were 0.316 µM, 0.0398 µM and 2 µM, respectively.

`CC(=O)Nc1nc2ccc(-c3ccncc3)cn2n1`: the half-inhibitory concentration (IC50) in assay [1] is 1.58 µM; in assay [2], 1.58 µM; in assay [3], over 100 µM.

`CC(C)(C)S(=O)(=O)c1cncc(-c2ccc3nc(N)nn3c2)c1`: the 50% inhibitory concentration (IC50) is over 15.8 µM in assay [1], 0.158 µM in assay [2], 3.16 µM in assay [3] and over 10 µM in assay [4].

In the case of `Nc1nc2ccc(-c3cncc(S(=O)(=O)NCC4CC4)c3)cn2n1`, the IC50 in assay [1] was 3.16 µM; in assay [2], 0.0158 µM; in assay [3] it was over 6.31 µM; in assay [4] it was 2 µM.

Regarding `COc1cccc(-c2ccc3nc(NC(C)=O)nn3c2)c1`, the IC50 in assay [1] is over 79.4 µM; in assay [2], 0.158 µM; in assay [3] it was over 79.4 µM.

In the case of `CS(=O)(=O)Nc1nc2ccc(-c3cncc(S(C)(=O)=O)c3)cn2n1`, the 50% inhibitory concentration (IC50) was over 100 µM in assay [1], over 39.8 µM in assay [2] and over 100 µM in assay [3].

In the case of `COc1ccc(-c2ccc3nc(NC(C)=O)nn3c2)cc1`, the IC50 was 25.1 µM in assay [1], 1 µM in assay [2] and 31.6 µM in assay [3].

Turning to `CC(=O)Nc1nc2ccc(-c3cc(C)c(O)c(C)c3)cn2n1`, the IC50 in assay [1] was 12.6 µM; in assay [2], 2 µM; in assay [3], 6.31 µM; in assay [5], 20 µM. Further, the Ratio IC50 was 5 in assay [6], 6.3 in assay [7] and 10 in assay [8].

With `CC(=O)Nc1nc2ccc(-c3ccc(S(C)(=O)=O)cc3)cn2n1`, the IC50 in assay [1], in assay [2] and in assay [3] was over 100 µM each time.

`CC(=O)Nc1nc2ccc(-c3sc(C)nc3C)cn2n1`: the IC50 in assay [1] is 6.31 µM; in assay [2], over 12.6 µM; in assay [3] it was over 100 µM.

Consider `CC(=O)Nc1nc2ccc(-c3cncc(CS(N)(=O)=O)c3)cn2n1`, for which the IC50 in assay [1] is over 0.1 µM; in assay [2] it was 0.00794 µM; in assay [3] it was over 1 µM.

Turning to `CC(=O)Nc1nc2ccc(-c3cccc(S(=O)(=O)NCc4ccccc4)c3)cn2n1`, the figures for the IC50 in assay [1], in assay [2] and in assay [3] were over 100 µM, 0.501 µM and 6.31 µM, respectively.

As to `CNS(=O)(=O)c1cccc(-c2ccc3nc(NC(C)=O)nn3c2)c1`, the IC50 is over 10 µM in assay [1], 0.251 µM in assay [2] and 1 µM in assay [3].

Take `CCCCNS(=O)(=O)c1cccc(-c2ccc3nc(NC(C)=O)nn3c2)c1`: the concentration for half-maximal inhibition (IC50) in assay [1] is 10 µM; in assay [2] it was 0.2 µM; in assay [3], 1.26 µM.

As for `CC(=O)N(C)c1nc2ccc(-c3cccc(S(C)(=O)=O)c3)cn2n1`, the figures for the IC50 in assay [1], in assay [2] and in assay [3] were over 100 µM, over 31.6 µM and over 100 µM, respectively.

As for `COc1ccccc1-c1ccc2nc(NC(C)=O)nn2c1`, the IC50 in assay [1] was over 100 µM; in assay [2], 3.98 µM; in assay [3], 31.6 µM; in assay [5], over 100 µM. Also, the Ratio IC50 in assay [6] is 5; in assay [7], over 30; in assay [8] it was over 30.

Turning to `CS(=O)(=O)c1cncc(-c2cc(C(F)(F)F)c3nc(N)nn3c2)c1`, the IC50 in assay [1], in assay [2] and in assay [3] was over 100 µM in each case.

Take `CC(=O)Nc1nc2ccc(-c3ccsc3)cn2n1`: the IC50 in assay [1] was 0.2 µM; in assay [2], 0.398 µM; in assay [3] it was over 20 µM.

Take `CC(=O)Nc1nc2ccc(-c3cncnc3)cn2n1`: the IC50 in assay [1] was over 15.8 µM; in assay [2] it was 3.98 µM; in assay [3] it was over 100 µM.

As for `CC(=O)Nc1nc2c(C)cc(-c3cncc(S(C)(=O)=O)c3)cn2n1`, the IC50 is over 39.8 µM in assay [1], 0.1 µM in assay [2], over 5.01 µM in assay [3] and 20 µM in assay [5].

Consider `Nc1nc2ccc(-c3cncc(S(=O)(=O)NCc4ccccc4)c3)cn2n1`, for which the IC50 in assay [1] is over 20 µM; in assay [2], 0.251 µM; in assay [3], 7.94 µM; in assay [4], 1.26 µM.

For `CC(=O)Nc1nc2ccc(-c3cccc(S(C)(=O)=O)c3)cn2n1`, the IC50 in assay [1] is over 50.1 µM; in assay [2], 0.501 µM; in assay [3], 3.16 µM; in assay [4], over 12.6 µM.

`CC(=O)Nc1nc2c(F)cc(-c3cncc(S(C)(=O)=O)c3)cn2n1`: the IC50 in assay [1] was over 20 µM; in assay [2], 0.126 µM; in assay [3], over 20 µM; in assay [5] it was 20 µM.
